From PubChem BioAssay AID328 (DTP/NCI, 2004) come the findings set out here.

Molecules are shown by their SMILES. Values joined by “and” are separate entries in the source; they are usually repeats but may differ in a detail not shown here. Equal values may be shown once. Inconclusive results and toxic doses are left out.

The test system of the assay is BDF1 mice, P388 leukemia ip, median survival T/C. Kind of assay: NCI In Vivo Anticancer Drug Screen. Data for tumor model P388 Leukemia (intraperitoneal) in B6D2F1 (BDF1) mice. The settings on record: endpoint: median survival time, higher = longer survival. A digest of the protocol:
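Each value expresses how treatment altered survival: treated-mouse outcome over vehicle-mouse outcome, both groups bearing the transplanted tumour.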

Setting [1] is: dose: 100.0 mg/kg/injection, schedule: Q04DX003 (ip), vehicle: saline.
The mark [2] stands for this setting: dose: 200.0 mg/kg/injection, schedule: Q04DX003 (ip), vehicle: saline.
Where [3] appears, read: dose: 25.0 mg/kg/injection, schedule: Q01DX009 (ip), vehicle: saline with Tween-80.
Setting [4] is: dose: 50.0 mg/kg/injection, schedule: Q01DX009 (ip), vehicle: saline with Tween-80.
Where [5] appears, read: dose: 100.0 mg/kg/injection, schedule: Q01DX009 (ip), vehicle: saline with Tween-80.
The mark [6] stands for this setting: dose: 100.0 mg/kg/injection, schedule: Q04DX003 (ip), vehicle: saline with Tween-80.
The mark [7] stands for this setting: dose: 200.0 mg/kg/injection, schedule: Q01DX009 (ip), vehicle: saline with Tween-80.
The mark [8] stands for this setting: dose: 200.0 mg/kg/injection, schedule: Q04DX003 (ip), vehicle: saline with Tween-80.
The mark [9] stands for this setting: dose: 400.0 mg/kg/injection, schedule: Q01DX009 (ip), vehicle: saline with Tween-80.
The mark [10] stands for this setting: dose: 400.0 mg/kg/injection, schedule: Q04DX003 (ip), vehicle: saline with Tween-80.
Setting [11] is: dose: 12.5 mg/kg/injection, schedule: Q01DX009 (ip), vehicle: saline.
Setting [12] is: dose: 25.0 mg/kg/injection, schedule: Q01DX009 (ip), vehicle: saline.
Where [13] appears, read: dose: 50.0 mg/kg/injection, schedule: Q01DX009 (ip), vehicle: saline.
Where [14] appears, read: dose: 50.0 mg/kg/injection, schedule: Q01DX009 (ip), vehicle: Klucel (hydroxypropylcellulose) (HPC).
Setting [15] is: dose: 100.0 mg/kg/injection, schedule: Q01DX009 (ip), vehicle: Klucel (hydroxypropylcellulose) (HPC).
[16] abbreviates: dose: 200.0 mg/kg/injection, schedule: Q01DX009 (ip), vehicle: Klucel (hydroxypropylcellulose) (HPC).
[17] abbreviates: dose: 100.0 mg/kg/injection, schedule: Q01DX009 (ip), vehicle: saline.

As for `CN(CO)c1nc(N(C)CO)nc(N(C)CO)n1`, the T/C runs as follows: (dose: 12.5 mg/kg/injection, schedule: Q01DX005 (ip), vehicle: saline) 104 % of control; (dose: 25.0 mg/kg/injection, schedule: Q01DX005 (ip), vehicle: saline) 113 % of control; (dose: 100.0 mg/kg/injection, schedule: Q01DX005 (ip), vehicle: saline) 155 % of control.
For `C(=N\N(c1ccccc1)c1ccccc1)/c1ccc(/C=N/N(c2ccccc2)c2ccccc2)cc1`, the T/C runs as follows: (dose: 100.0 mg/kg/injection, schedule: Q04DX003 (ip), vehicle: Klucel (hydroxypropylcellulose) (HPC)) 100 % of control; (dose: 200.0 mg/kg/injection, schedule: Q04DX003 (ip), vehicle: Klucel (hydroxypropylcellulose) (HPC)) 100 % of control; (dose: 400.0 mg/kg/injection, schedule: Q04DX003 (ip), vehicle: Klucel (hydroxypropylcellulose) (HPC)) 95 % of control.
Consider `CN1CCC=C(C(=O)N(c2ccccc2)c2ccccc2)C1`, for which the T/C reads like this: (dose: 50.0 mg/kg/injection, schedule: Q04DX003 (ip), vehicle: saline) 95 % of control; under setting [1], 100 % of control; under setting [2], 100 % of control.
For the molecule `CC(C)(C)CC(C)(C)c1ccc(O)cc1`, the T/C under setting [1] is 100 % of control; the T/C under setting [2] was 115 % of control; the T/C (dose: 400.0 mg/kg/injection, schedule: Q04DX003 (ip), vehicle: saline) is 120 % of control.
In the case of `COc1ccc(CNCCNCCNCc2ccc(OC)cc2)cc1`, the T/C runs as follows: under setting [3], 87 % of control; under setting [4], 105 % of control; under setting [5], 101 % of control and 105 % of control; under setting [6], 122 % of control; under setting [7], 93 % of control; under setting [8], 111 % of control. The T/C was 101 % of control under setting [9] and 122 % of control under setting [10].
In the case of `CC(=O)Nc1cc2c3c(c1)CCN3CCC2`, the T/C is 95 % of control (dose: 3.13 mg/kg/injection, schedule: Q01DX001 (ip), vehicle: saline with Tween-80); 95 % of control (dose: 6.25 mg/kg/injection, schedule: Q01DX001 (ip), vehicle: saline with Tween-80); 90 % of control (dose: 12.5 mg/kg/injection, schedule: Q01DX001 (ip), vehicle: saline with Tween-80).
`CC1NCCNCCNCCNC(C)c2cccc1n2` (configuration not stated): the T/C is 118 % of control (dose: 6.25 mg/kg/injection, schedule: Q01DX009 (ip), vehicle: saline); 106 % of control under setting [11]; 118 % of control under setting [12].
`CC=C=CCN(C)Cc1ccccc1`: the T/C under setting [11] was 120 % of control; the T/C under setting [12] was 100 % of control; the T/C under setting [13] is 105 % of control and 109 % of control.
Turning to `CN(C)c1ccc(S(=O)(=O)c2ccc3nc(N)nc(N)c3c2)cc1`, the T/C is 97 % of control under setting [4], 91 % of control under setting [5] and 88 % of control under setting [7].
The matching figures for `CCc1nnc2sc3c(Cl)c4nn5c(CC)nnc5sc4c(Cl)c3nn12`: 114 % of control, 118 % of control and 98 % of control.
As for `Cc1ccc(NC(=O)N(CCCCl)N=O)cc1`, the T/C was 105 % of control (dose: 25.0 mg/kg/injection, schedule: Q01DX009 (ip), vehicle: Klucel (hydroxypropylcellulose) (HPC)); 119 % of control under setting [14]; 111 % of control under setting [15]; 95 % of control under setting [16].
With `CNC(=O)OCc1c(COC(=O)NC)c(-c2ccc(Cl)cc2)n2c1CCC2`, the T/C under setting [14] is 96 % of control.
Regarding `COC(=O)C1C(O)C(C)C(=O)C(C)/C=C\C=C(C)C(=O)Nc2c(C)c(OC(C)=O)c3c(c2O)C(=O)C(C)=C2OCOC(=C23)C(C)=CC(C)(O)C(O)C(C)C1O` (configuration not stated), the T/C is 101 % of control under setting [15]; 101 % of control under setting [16]; 101 % of control (dose: 400.0 mg/kg/injection, schedule: Q01DX009 (ip), vehicle: Klucel (hydroxypropylcellulose) (HPC)).
Consider `CC[N+](CC)(CC)CCCCCC[N+](CC)(CC)CC`, for which the T/C (dose: 1.0 mg/kg/injection, schedule: Q01DX009 (ip), vehicle: water) is 100 % of control; the T/C (dose: 2.0 mg/kg/injection, schedule: Q01DX009 (ip), vehicle: water) was 104 % of control; the T/C (dose: 2.0 mg/kg/injection, schedule: Q04DX003 (ip), vehicle: water) was 102 % of control and 103 % of control; the T/C (dose: 4.0 mg/kg/injection, schedule: Q01DX009 (ip), vehicle: water) is 97 % of control; the T/C (dose: 4.0 mg/kg/injection, schedule: Q04DX003 (ip), vehicle: water) is 116 % of control; the T/C (dose: 6.0 mg/kg/injection, schedule: Q04DX003 (ip), vehicle: water) was 102 % of control. The T/C (dose: 6.25 mg/kg/injection, schedule: Q04DX003 (ip), vehicle: water) is 123 % of control; the T/C (dose: 8.0 mg/kg/injection, schedule: Q01DX009 (ip), vehicle: water) was 104 % of control; the T/C (dose: 8.0 mg/kg/injection, schedule: Q04DX003 (ip), vehicle: water) is 100 % of control.
With `Cc1cc(C)[s+]s1`, the T/C is, setting by setting: (dose: 0.78 mg/kg/injection, schedule: Q01DX009 (ip), vehicle: water) 91 % of control; (dose: 3.12 mg/kg/injection, schedule: Q01DX009 (ip), vehicle: water) 97 % of control; (dose: 6.25 mg/kg/injection, schedule: Q01DX009 (ip), vehicle: water) 91 % of control.
For `CN=C1N[N+]2=C(C)CCCC2S1` (configuration not stated), the T/C is 97 % of control under setting [12], 91 % of control under setting [13] and 99 % of control under setting [17].
Regarding `O=S(=O)(O)c1ccc(CCCCCCl)cc1`, the T/C reads like this: under setting [12], 109 % of control; under setting [13], 100 % of control; (dose: 100.0 mg/kg/injection, schedule: Q01DX001 (ip), vehicle: saline) 110 % of control; under setting [17], 104 % of control and 110 % of control; (dose: 200.0 mg/kg/injection, schedule: Q01DX001 (ip), vehicle: saline) 90 % of control; (dose: 200.0 mg/kg/injection, schedule: Q01DX009 (ip), vehicle: saline) 100 % of control. Moreover, the T/C was 90 % of control (dose: 400.0 mg/kg/injection, schedule: Q01DX001 (ip), vehicle: saline) and 110 % of control (dose: 400.0 mg/kg/injection, schedule: Q01DX009 (ip), vehicle: saline).
For the molecule `CN(c1ccccc1)c1cc2c(cc1[N+](=O)[O-])no[n+]2[O-]`, the T/C (dose: 15.0 mg/kg/injection, schedule: Q01DX009 (ip), vehicle: saline with Tween-80) is 118 % of control and the T/C (dose: 60.0 mg/kg/injection, schedule: Q01DX009 (ip), vehicle: saline with Tween-80) was 113 % of control.
In the case of `COc1cc(OC)cc(C2N(Cc3ccc(OC)c(OC)c3)CCN2Cc2ccc(OC)c(OC)c2)c1`, the T/C is, setting by setting: under setting [5], 100 % of control; under setting [6], 100 % of control; under setting [7], 109 % of control; under setting [8], 100 % of control; under setting [9], 109 % of control; under setting [10], 115 % of control.
On to `Cc1ccc(S(=O)(=O)/C=C(/I)c2ccccc2)cc1`, for which the T/C reads like this: (dose: 6.25 mg/kg/injection, schedule: Q01DX009 (ip), vehicle: saline with Tween-80) 124 % of control; (dose: 12.5 mg/kg/injection, schedule: Q01DX009 (ip), vehicle: saline with Tween-80) 106 % of control; under setting [3], 106 % of control; under setting [4], 92 % of control and 109 % of control; under setting [5], 109 % of control; under setting [6], 114 % of control. In addition, the T/C is 106 % of control under setting [7], 106 % of control under setting [8], 100 % of control under setting [9] and 97 % of control under setting [10].
On to `C/C=C/C[P+](C)(c1ccccc1)c1ccccc1`, for which the T/C reads like this: (dose: 0.2 mg/kg/injection, schedule: Q01DX009 (ip), vehicle: saline) 104 % of control; (dose: 0.4 mg/kg/injection, schedule: Q01DX009 (ip), vehicle: saline) 103 % of control; (dose: 0.8 mg/kg/injection, schedule: Q01DX009 (ip), vehicle: saline) 104 % of control.
